Results: ChEMBL document CHEMBL5579821, “Non-kinase off-target inhibitory activities of clinically-relevant kinase inhibitors” (Eur J Med Chem, 2024)

Legend:
[1] = target: T1, Adenosine receptor A3 (Homo sapiens, UniProt P0DMS8)
T1 sequence (P0DMS8 whole entry): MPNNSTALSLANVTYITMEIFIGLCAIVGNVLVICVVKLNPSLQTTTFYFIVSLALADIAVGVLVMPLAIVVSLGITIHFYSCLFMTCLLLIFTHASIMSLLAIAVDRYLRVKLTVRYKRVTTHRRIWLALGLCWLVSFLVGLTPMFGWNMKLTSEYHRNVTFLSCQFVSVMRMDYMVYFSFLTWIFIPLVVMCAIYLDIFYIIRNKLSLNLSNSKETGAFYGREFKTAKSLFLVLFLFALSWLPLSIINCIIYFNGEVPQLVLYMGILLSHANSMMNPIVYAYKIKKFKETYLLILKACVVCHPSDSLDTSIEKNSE

[2] = clinical; conditions: human, plasma, 5 mg
[3] = target: T2, Aldo-keto reductase family 1 member C3 (Homo sapiens, UniProt P42330)
T2 sequence (P42330 whole entry): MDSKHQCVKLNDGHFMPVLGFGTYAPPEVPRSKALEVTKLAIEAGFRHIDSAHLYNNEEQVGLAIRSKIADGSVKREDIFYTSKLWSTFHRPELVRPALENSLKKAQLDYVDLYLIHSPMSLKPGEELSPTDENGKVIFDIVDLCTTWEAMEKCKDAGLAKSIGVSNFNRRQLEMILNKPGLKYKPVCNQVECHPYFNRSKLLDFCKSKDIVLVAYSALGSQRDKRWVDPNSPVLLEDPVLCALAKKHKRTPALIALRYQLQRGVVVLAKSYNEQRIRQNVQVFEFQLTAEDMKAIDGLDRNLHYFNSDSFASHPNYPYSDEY

[4] = clinical; conditions: human, 300 mg
[5] = clinical; conditions: human, in vivo, po, 50 mg
[6] = clinical; conditions: human, plasma
[7] = cells; conditions: Homo sapiens, NIH3T3
[8] = target: Proto-oncogene tyrosine-protein kinase receptor Ret (Homo sapiens, UniProt P07949)
Sequence of Proto-oncogene tyrosine-protein kinase receptor Ret (P07949 whole entry): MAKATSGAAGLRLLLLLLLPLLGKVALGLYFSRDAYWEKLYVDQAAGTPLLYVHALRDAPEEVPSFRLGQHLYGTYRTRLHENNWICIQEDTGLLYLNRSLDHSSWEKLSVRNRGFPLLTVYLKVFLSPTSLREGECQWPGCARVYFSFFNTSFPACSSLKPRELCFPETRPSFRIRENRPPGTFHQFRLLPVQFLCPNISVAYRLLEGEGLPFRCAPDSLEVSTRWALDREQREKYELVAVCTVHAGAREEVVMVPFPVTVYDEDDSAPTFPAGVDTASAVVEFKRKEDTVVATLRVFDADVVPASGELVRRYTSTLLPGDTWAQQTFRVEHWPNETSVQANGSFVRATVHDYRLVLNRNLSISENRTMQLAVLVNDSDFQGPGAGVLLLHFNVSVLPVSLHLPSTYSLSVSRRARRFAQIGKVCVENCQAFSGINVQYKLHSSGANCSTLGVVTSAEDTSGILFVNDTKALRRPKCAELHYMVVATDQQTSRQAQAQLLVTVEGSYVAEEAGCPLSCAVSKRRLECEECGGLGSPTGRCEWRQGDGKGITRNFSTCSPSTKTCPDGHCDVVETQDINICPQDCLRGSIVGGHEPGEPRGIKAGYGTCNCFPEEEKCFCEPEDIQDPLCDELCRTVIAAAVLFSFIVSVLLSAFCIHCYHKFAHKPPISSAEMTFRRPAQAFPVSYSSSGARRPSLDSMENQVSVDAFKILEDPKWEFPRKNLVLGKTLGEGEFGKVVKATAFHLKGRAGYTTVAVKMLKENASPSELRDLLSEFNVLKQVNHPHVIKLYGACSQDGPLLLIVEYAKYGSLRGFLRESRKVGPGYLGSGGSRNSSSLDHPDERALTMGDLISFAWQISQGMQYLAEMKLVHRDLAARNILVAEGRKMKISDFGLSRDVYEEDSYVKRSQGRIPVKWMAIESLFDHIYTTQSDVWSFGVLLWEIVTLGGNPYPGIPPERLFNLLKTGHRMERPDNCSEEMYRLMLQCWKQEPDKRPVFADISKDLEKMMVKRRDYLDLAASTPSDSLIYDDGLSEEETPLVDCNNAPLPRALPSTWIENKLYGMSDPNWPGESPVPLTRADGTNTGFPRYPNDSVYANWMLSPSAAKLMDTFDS

Q: With COc1cc(Nc2ncc(F)c(Nc3ccc4c(n3)NC(=O)C(C)(C)O4)n2)cc(OC)c1OC as the compound, how does the IC50 [1] read?
A: 18 nM

Q: For CNC(=O)c1ccccc1Sc1ccc2c(/C=C/c3ccccn3)n[nH]c2c1 [AXITINIB], which Cmax [2] is on record?
A: 27.8 ng/mL

Q: For CCc1cnn2c(NCc3ccc[n+]([O-])c3)cc(N3CCCC[C@H]3CCO)nc12 [DINACICLIB], which Kd [3] is on record?
A: 69 nM

Q: For Cc1cnc(Nc2ccc(OCCN3CCCC3)cc2)nc1Nc1cccc(S(=O)(=O)NC(C)(C)C)c1 [FEDRATINIB], which Cmax [4] is on record?
A: 971 ng/mL

Q: With CO[C@@H]1[C@H](N(C)C(=O)c2ccccc2)C[C@H]2O[C@]1(C)n1c3ccccc3c3c4c(c5c6ccccc6n2c5c31)C(=O)NC4 [MIDOSTAURIN] as the compound, how does the Cmax at 192 h [5] read?
A: 1600 ng/mL

Q: Which results are given for Cc1cn(-c2cc(NC(=O)c3ccc(C)c(Nc4nccc(-c5cccnc5)n4)c3)cc(C(F)(F)F)c2)cn1 [NILOTINIB]?
A: Cmax [6]: 1640 ng/mL; IC50 [7]: 374 nM

Q: With CCCS(=O)(=O)Nc1ccc(F)c(C(=O)c2c[nH]c3ncc(-c4ccc(Cl)cc4)cc23)c1F [VEMURAFENIB] as the compound, how does the IC50 [8] read?
A: 4.8 nM
